According to PMC10771525 (Communications Biology, 2024):
Where no end group is shown, it is not given here.

Legend:
HTR1B = HTR1B (Homo sapiens, UniProt P28222); assay: GPCR panel (control), Arrestin, U2OS; type: cell-based; conditions: reference agonist
HTR1E = HTR1E (Homo sapiens, UniProt P28566); assay: GPCR panel (control), Arrestin, U2OS; type: cell-based; conditions: reference agonist
HTR1F = HTR1F (Homo sapiens, UniProt P30939); assay: GPCR panel (control), Arrestin, U2OS; type: cell-based; conditions: reference agonist
HTR5A = HTR5A (Homo sapiens, UniProt P47898); assay: GPCR panel (control), Arrestin, U2OS; type: cell-based; conditions: reference agonist
HTR2A = HTR2A (Homo sapiens, UniProt P28223); conditions: reference agonist, U2OS, Arrestin
OPRL1 = OPRL1 (Homo sapiens, UniProt P41146); conditions: reference agonist, OPRL1, CHO-K1, Arrestin
EDNRA = EDNRA (Homo sapiens, UniProt P25101); conditions: reference agonist, CHO-K1, Arrestin
OPRM1 = OPRM1 (Homo sapiens, UniProt P35372); conditions: reference agonist, OPRM1, U2OS, Arrestin
AGTR1 = AGTR1 (Homo sapiens, UniProt P30556); conditions: reference agonist, AGTR1, CHO-K1, Arrestin
NMU1R = molecular target: T1, NMU1R (Homo sapiens, UniProt Q9HB89); assay: GPCR panel (control), Arrestin, U2OS; type: cell-based; conditions: reference agonist
T1 construct: expressed in transfected cells; host or cells: U2OS

F2R = molecular target: T2, F2R (Homo sapiens, UniProt P25116); assay: GPCR panel (control), Arrestin, CHO-K1; type: cell-based; conditions: reference agonist
T2 construct: expressed in transfected cells; host or cells: CHO-K1

SSTR2 = SSTR2 (Homo sapiens, UniProt P30874); conditions: reference agonist, SSTR2, CHO-K1, Arrestin
SSTR5 = SSTR5 (Homo sapiens, UniProt P35346); conditions: reference agonist, SSTR5, CHO-K1, Arrestin
BDKRB2 = molecular target: T3, BDKRB2 (Homo sapiens, UniProt P30411); assay: GPCR panel (control), Arrestin, CHO-K1; type: cell-based; conditions: reference agonist
T3 construct: expressed in transfected cells; host or cells: CHO-K1

MC1R = MC1R (Homo sapiens, UniProt Q01726); conditions: reference agonist, CHO-K1, Arrestin
MC3R = MC3R (Homo sapiens, UniProt P41968); conditions: reference agonist, CHO-K1, Arrestin
MC5R = MC5R (Homo sapiens, UniProt P33032); conditions: reference agonist, CHO-K1, Arrestin
CNR1 = CNR1 (Homo sapiens, UniProt P21554); conditions: reference agonist, CNR1, CHO-K1, Arrestin
CNR2 = CNR2 (Homo sapiens, UniProt P34972); conditions: reference agonist, CNR2, CHO-K1, Arrestin
SCTR = molecular target: T4, SCTR (Homo sapiens, UniProt P47872); assay: GPCR panel (control), Arrestin, CHO-K1; type: cell-based; conditions: reference agonist
T4 construct: expressed in transfected cells; host or cells: CHO-K1

F2RL3 = molecular target: T5, F2RL3 (Homo sapiens, UniProt Q96RI0); assay: GPCR panel (control), Arrestin, CHO-K1; type: cell-based; conditions: reference agonist
T5 construct: expressed in transfected cells; host or cells: CHO-K1

UTR2 = molecular target: T6, UTR2 (Homo sapiens, UniProt Q9UKP6); assay: GPCR panel (control), Arrestin, CHO-K1; type: cell-based; conditions: reference agonist
T6 construct: expressed in transfected cells; host or cells: CHO-K1

FPR1 = molecular target: T7, FPR1 (Homo sapiens, UniProt P21462); assay: GPCR panel (control), Arrestin, CHO-K1; type: cell-based; conditions: reference agonist
T7 construct: expressed in transfected cells; host or cells: CHO-K1

FPRL1 = molecular target: T8, FPRL1 (Homo sapiens, UniProt P25090); assay: GPCR panel (control), Arrestin, CHO-K1; type: cell-based; conditions: reference agonist
T8 construct: expressed in transfected cells; host or cells: CHO-K1

MLNR = molecular target: T9, MLNR (Homo sapiens, UniProt O43193); assay: GPCR panel (control), Arrestin, CHO-K1; type: cell-based; conditions: reference agonist
T9 construct: expressed in transfected cells; host or cells: CHO-K1

PTGER2 = PTGER2 (Homo sapiens, UniProt P43116); assay: GPCR panel (control), Arrestin, CHO-K1; type: cell-based; conditions: reference agonist
PTGER3 = PTGER3 (Homo sapiens, UniProt P43115); assay: GPCR panel (control), Arrestin, CHO-K1; type: cell-based; conditions: reference agonist
PTGER4 = PTGER4 (Homo sapiens, UniProt P35408); assay: GPCR panel (control), Arrestin, HEK-293; type: cell-based; conditions: reference agonist, PTGER4, HEK-293, Arrestin
CCR9 = assay: GPCR panel (control), Arrestin, CHO-K1; type: cell-based, human; conditions: reference agonist

T9 sequence (O43193 whole entry): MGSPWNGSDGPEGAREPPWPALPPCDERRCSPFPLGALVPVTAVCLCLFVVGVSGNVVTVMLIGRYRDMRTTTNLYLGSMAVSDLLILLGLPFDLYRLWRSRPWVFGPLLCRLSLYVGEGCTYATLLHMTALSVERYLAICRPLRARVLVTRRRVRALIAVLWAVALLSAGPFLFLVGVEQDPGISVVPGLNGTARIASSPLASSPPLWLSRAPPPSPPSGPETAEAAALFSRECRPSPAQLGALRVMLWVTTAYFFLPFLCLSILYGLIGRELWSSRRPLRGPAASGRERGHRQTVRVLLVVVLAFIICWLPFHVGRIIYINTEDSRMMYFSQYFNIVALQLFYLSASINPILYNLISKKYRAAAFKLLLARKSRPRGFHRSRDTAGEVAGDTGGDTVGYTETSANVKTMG
Chain of PTGER3 (P43115 whole entry): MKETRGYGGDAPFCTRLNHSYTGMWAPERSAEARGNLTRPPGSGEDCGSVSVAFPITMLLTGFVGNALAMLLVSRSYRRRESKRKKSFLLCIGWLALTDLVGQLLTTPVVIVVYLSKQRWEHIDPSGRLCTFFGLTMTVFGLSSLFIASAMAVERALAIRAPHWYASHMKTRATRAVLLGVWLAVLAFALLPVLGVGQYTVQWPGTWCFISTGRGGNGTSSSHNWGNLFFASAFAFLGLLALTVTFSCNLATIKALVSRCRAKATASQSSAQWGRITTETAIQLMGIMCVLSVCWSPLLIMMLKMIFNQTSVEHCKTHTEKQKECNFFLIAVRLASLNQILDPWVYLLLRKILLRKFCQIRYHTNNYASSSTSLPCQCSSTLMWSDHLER
Chain of HTR2A (P28223 whole entry): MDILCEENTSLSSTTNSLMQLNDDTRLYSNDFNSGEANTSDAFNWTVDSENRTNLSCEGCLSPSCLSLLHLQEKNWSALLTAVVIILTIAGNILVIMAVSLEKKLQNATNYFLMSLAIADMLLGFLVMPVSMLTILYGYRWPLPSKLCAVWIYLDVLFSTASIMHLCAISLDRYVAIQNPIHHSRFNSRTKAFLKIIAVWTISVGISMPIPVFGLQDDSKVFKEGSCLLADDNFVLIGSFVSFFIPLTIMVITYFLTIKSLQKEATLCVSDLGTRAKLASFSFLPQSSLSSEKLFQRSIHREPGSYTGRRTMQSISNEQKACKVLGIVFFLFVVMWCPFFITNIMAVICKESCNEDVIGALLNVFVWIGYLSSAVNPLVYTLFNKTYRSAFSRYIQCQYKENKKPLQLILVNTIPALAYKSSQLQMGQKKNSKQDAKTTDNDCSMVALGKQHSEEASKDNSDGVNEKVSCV
Chain of AGTR1 (P30556 whole entry): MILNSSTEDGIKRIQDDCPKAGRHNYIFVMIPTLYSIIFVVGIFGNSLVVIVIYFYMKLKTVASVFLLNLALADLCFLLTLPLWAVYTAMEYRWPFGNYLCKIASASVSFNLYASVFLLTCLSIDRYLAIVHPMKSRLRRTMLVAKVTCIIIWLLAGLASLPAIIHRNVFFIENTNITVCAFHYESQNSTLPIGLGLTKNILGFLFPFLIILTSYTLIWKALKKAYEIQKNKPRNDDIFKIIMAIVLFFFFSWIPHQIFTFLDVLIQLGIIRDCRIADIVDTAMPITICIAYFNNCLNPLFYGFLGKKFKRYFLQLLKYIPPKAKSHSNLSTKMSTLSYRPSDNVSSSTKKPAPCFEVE
T4 sequence (P47872 23-440): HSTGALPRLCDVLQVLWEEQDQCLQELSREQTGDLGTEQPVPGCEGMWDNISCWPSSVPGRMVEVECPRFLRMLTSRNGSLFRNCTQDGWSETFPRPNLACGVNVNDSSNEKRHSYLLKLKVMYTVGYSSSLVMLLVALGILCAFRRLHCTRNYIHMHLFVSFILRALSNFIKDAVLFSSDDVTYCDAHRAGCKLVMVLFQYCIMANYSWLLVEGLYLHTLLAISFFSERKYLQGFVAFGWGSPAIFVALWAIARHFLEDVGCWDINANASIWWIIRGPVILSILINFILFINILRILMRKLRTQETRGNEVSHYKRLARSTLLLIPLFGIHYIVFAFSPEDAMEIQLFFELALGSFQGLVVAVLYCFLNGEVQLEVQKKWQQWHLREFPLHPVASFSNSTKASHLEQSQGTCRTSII
T6 sequence (Q9UKP6 whole entry): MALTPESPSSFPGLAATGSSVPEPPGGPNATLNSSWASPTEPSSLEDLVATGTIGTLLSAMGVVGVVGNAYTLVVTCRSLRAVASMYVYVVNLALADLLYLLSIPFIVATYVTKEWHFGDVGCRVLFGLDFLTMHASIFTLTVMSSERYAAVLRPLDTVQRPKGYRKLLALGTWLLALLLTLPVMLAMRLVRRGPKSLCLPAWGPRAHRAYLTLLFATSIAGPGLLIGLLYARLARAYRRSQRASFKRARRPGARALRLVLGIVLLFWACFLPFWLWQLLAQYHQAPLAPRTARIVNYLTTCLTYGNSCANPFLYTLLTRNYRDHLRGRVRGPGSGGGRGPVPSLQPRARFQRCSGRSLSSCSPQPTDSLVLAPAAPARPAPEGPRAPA
Chain of HTR1E (P28566 whole entry): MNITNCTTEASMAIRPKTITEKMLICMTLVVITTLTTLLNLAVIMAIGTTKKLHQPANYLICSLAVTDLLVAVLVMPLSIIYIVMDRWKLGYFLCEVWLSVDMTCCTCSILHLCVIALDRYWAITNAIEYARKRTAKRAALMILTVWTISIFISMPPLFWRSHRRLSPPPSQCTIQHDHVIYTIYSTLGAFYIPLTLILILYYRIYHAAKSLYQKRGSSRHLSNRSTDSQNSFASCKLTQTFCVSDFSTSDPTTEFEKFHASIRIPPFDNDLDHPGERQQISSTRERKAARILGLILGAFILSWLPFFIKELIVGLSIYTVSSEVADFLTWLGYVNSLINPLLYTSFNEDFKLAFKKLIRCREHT
Chain of CNR1 (P21554 whole entry): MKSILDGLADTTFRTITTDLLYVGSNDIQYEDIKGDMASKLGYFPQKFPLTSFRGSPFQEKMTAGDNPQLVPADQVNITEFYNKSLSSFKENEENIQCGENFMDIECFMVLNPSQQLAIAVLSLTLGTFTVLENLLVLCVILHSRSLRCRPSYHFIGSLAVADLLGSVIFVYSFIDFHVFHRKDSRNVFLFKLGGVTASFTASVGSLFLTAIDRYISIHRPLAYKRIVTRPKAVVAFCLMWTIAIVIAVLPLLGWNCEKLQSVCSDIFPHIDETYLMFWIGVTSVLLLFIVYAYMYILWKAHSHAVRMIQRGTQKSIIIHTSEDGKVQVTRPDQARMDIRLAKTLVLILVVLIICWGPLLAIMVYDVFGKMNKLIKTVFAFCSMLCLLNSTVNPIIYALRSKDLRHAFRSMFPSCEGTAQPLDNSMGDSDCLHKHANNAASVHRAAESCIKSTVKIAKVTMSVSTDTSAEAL
T2 sequence (P25116 22-425): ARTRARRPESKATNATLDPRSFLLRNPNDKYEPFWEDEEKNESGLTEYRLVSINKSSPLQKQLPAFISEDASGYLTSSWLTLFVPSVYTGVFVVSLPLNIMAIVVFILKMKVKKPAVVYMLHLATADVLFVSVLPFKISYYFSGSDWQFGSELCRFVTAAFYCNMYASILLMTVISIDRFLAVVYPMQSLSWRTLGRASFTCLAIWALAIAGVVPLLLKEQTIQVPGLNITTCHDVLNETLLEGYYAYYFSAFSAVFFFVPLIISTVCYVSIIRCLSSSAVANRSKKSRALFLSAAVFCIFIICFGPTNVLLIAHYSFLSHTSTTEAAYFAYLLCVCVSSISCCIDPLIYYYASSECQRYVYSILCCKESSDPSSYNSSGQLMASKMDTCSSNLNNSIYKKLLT
T5 sequence (Q96RI0 18-385): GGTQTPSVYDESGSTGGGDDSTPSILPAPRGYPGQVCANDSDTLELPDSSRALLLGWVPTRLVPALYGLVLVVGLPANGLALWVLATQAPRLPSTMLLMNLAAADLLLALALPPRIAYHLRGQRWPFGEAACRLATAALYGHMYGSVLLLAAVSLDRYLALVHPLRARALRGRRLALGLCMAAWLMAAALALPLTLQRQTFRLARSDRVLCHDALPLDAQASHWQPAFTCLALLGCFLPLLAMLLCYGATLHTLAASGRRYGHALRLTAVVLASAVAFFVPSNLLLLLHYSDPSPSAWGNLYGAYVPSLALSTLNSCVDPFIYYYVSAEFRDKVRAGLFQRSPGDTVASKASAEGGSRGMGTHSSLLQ
T1 sequence (Q9HB89 whole entry): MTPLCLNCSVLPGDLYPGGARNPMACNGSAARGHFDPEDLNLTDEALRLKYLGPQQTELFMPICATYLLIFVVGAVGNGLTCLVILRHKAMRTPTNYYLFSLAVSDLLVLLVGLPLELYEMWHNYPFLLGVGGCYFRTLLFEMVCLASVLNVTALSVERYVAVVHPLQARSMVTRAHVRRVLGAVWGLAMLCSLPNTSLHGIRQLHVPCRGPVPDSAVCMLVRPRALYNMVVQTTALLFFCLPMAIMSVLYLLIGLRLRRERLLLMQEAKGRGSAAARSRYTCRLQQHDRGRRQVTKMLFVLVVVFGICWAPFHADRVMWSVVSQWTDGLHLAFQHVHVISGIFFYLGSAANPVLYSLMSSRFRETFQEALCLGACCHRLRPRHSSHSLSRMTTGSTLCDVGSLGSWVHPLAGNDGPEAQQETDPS
T7 sequence (P21462 whole entry): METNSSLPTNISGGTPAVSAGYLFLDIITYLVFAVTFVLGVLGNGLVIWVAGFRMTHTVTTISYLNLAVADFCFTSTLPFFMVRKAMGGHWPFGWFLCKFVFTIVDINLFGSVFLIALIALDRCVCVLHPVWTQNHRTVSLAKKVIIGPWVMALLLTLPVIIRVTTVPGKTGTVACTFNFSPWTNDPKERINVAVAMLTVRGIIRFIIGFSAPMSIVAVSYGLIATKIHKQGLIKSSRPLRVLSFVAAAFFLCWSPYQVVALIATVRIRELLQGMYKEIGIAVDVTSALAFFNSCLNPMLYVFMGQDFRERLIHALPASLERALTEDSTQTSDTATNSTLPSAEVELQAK

**Q.** With `NCCc1c[nH]c2ccc(O)cc12` [Serotonin] as the molecule, how does the “EC80” value (HTR1B) read?
**A.** Its value is 7.7 µM.

**Q.** And the “EC80” value (HTR1E)?
**A.** Its value is 1.3 µM.

**Q.** What about the “EC80” value (HTR1F) of the same molecule?
**A.** Its value is 6.6 µM.

**Q.** And the “EC80” value (HTR5A)?
**A.** Its value is 0.63 µM.

**Q.** What about the “EC80” value (HTR2A) of the same molecule?
**A.** The value was 7.1 µM.

**Q.** Orphanin FQ was tested. Which “EC80” value (OPRL1) did it give?
**A.** The value was 0.15 µM.

**Q.** Endothelin-1 was tested. Which “EC80” value (EDNRA) did it give?
**A.** The value was 0.19 µM.

**Q.** How did the “EC80” value (OPRM1) turn out when met-Enkephalin was run?
**A.** The value was 54 µM.

**Q.** Angiotensin II was tested. Which “EC80” value (AGTR1) did it give?
**A.** The value was 0.15 µM.

**Q.** With Neuromedin U-25 as the molecule, how does the “EC80” value (NMU1R) read?
**A.** Its value is 0.092 µM.

**Q.** For TFLLR-NH2, which “EC80” value (F2R) is on record?
**A.** The value was 1300 µM.

**Q.** For Somatostatin 28, which “EC80” value (SSTR2) is on record?
**A.** The value was 0.093 µM.

**Q.** And the “EC80” value (SSTR5)?
**A.** The value was 1.3 µM.

**Q.** How did the “EC80” value (BDKRB2) turn out when RPPGFSPFR [Bradykinin] was run?
**A.** Its value is 0.035 µM.

**Q.** Which results are given for Melanotan II?
**A.** EC80 (MC1R): 0.03 µM; EC80 (MC3R): 0.037 µM; EC80 (MC5R): 0.34 µM

**Q.** With `CCCCCCC(C)(C)c1ccc([C@@H]2C[C@H](O)CC[C@H]2CCCO)c(O)c1` [CP55940] as the molecule, how does the “EC80” value (CNR1) read?
**A.** The value was 0.17 µM.

**Q.** And the “EC80” value (CNR2)?
**A.** Its value is 0.14 µM.

**Q.** Which “EC80” value (SCTR) does the source give for Secretin here?
**A.** Its value is 0.074 µM.

**Q.** AYPGKF-NH2 was tested. Which “EC80” value (F2RL3) did it give?
**A.** Its value is 370 µM.

**Q.** With `CC(C)[C@H](NC(=O)[C@@H]1CSSC[C@H](NC(=O)[C@H](CC(=O)O)NC(=O)[C@@H]2CCCN2C(=O)[C@@H](NC(=O)[C@@H](N)CCC(=O)O)[C@@H](C)O)C(=O)N[C@@H](Cc2ccccc2)C(=O)N[C@@H](Cc2c[nH]c3ccccc23)C(=O)N[C@@H](CCCCN)C(=O)N[C@@H](Cc2ccc(O)cc2)C(=O)N1)C(=O)O` [Urotensin II] as the molecule, how does the “EC80” value (UTR2) read?
**A.** Its value is 0.031 µM.

**Q.** WKYMVm-NH2 was tested. Which “EC80” value (FPR1) did it give?
**A.** The value was 0.62 µM.

**Q.** And the “EC80” value (FPRL1)?
**A.** Its value is 0.067 µM.

**Q.** With Motilin as the molecule, how does the “EC80” value (MLNR) read?
**A.** The value was 0.11 µM.

**Q.** With `CCCCC[C@H](O)/C=C/[C@H]1[C@H](O)CC(=O)[C@@H]1C/C=C\CCCC(=O)O` [Prostaglandin E2] as the molecule, how does the “EC80” value (PTGER2) read?
**A.** Its value is 42 µM.

**Q.** And the “EC80” value (PTGER3)?
**A.** Its value is 0.98 µM.

**Q.** And the “EC80” value (PTGER4)?
**A.** Its value is 0.14 µM.

B1: CCL25 (protein, UniProt O15444 24-150, looked up)
C-C motif chemokine 25: QGVFEDCCLAYHYPIGWAVLRRAWTYRIQEVSGSCNLPAAIFYLPKRHRKVCGNPKSREVQRAMKLLDARNKVFAKLHHNTQTFQAGPHAVKKLSSGNSKLSSSKFSNPISSSKRNVSLLISANSGL
**Q.** B1 was tested. Which “EC80” value (CCR9) did it give?
**A.** The value was 14 µM.
